Series [1] can be described thus: Cytotoxic effect on macrophages, resazurin. The class given is cell-based, murine. The conditions noted are these: mouse, J774A.1 macrophages; J774A.1 murine macrophages, 20 h + 4 h resazurin; confidence interval (Probit) in parentheses; triplicate; read-out: Macrophages J774 CC50. The protocol: (§1) The microplate was incubated at 37 °C with 5% CO2 and humidity for 24 h to allow for the formation of a cell monolayer with a confluence of 80%. Subsequently, a concentration–response evaluation was carried out. Briefly, one of the compounds at the corresponding concentration was placed in each well with macrophages. […] As the negative cytotoxicity control, cells were exposed to 1% DMSO. The microplate was incubated at 37 °C with 5% CO2 and humidity for 20 h. Afterwards, 10 μL of 0.01% resazurin was added and the microplate was incubated for 4 h. As mentioned above, the microplate was read via a fluorometer at 544 nm excitation and 590 nm emission. Each treated well was compared to the negative cytotoxicity control and the data were expressed as a percentage of metabolic inhibition. The Probit statistical tool was used to calculate the CC50.
A general note: Resazurin is reduced to fluorescent resorufin, in cell work by metabolically active cells.

Series [2] has as its system L. mexicana promastigotes. The series can be described thus: Metabolic inhibition of Leishmania mexicana promastigotes, fluorometric analysis with resazurin. The class given is cell-based. The conditions noted are these: for SI (CC50/IC50) L. mexicana: CC50 macrophages J774 / IC50 L. mexicana promastigotes; for IC50: Leishmania mexicana, 48 h, read-out: L. mexicana Promastigotes IC50, promastigotes, 24 h + 24 h resazurin, 27 °C, confidence interval (Probit) in parentheses, triplicate; for activity on L. mexicana (in words): promastigotes, in vitro. Here is the method:
A promastigote culture of L. mexicana was harvested in the stationary phase after 7 days of growth in culture. To each well of a sterile 96-well microplate, 5 × 10^5 promastigotes and the compound to be assessed (or the reference drug) were added to a final volume of 100 μL in RPMI culture medium supplemented with 10% SFB and 1% ampicillin/streptomycin. Each compound was examined at different concentrations, obtained by serial two-fold dilutions starting from 50 μg/mL. […] Promastigotes with 0.5% DMSO (at the vehicle concentration of the greatest dilution of the compound) served as the positive viability control and amphotericin B at a final concentration of 5 μg/mL served as the negative viability control. Each condition was assayed in triplicate.
After 24 h of incubation, 10 μL of 0.01% resazurin was added to each of the wells and incubation continued for another 24 h under the same conditions. The plate was read via a fluorometer (Spectramax M3, Molecular Devices, LLC, San Jose, CA, USA) at 544 nm excitation and 590 nm emission. Each treated well was compared to the positive viability control, and metabolic inhibition was expressed as a percentage. The IC50 value was determined with the Probit statistical tool version 4.1 [31, 32, 33].
Resazurin is a blue, permeable, and non-fluorescent compound. Upon entering cells, it is reduced to resorufin due to the reducing environment of the cytosol in living cells. Resorufin is red and highly fluorescent. The number of living cells is proportional to the fluorescence intensity of resorufin [31].

In series [3] the test system is T. cruzi INC-5 epimastigotes. Kind of series: Metabolic inhibition of Trypanosoma cruzi INC-5 epimastigotes, colorimetric analysis with MTT. Format: cell-based. As to conditions: for SI (CC50/IC50) T. cruzi: CC50 macrophages J774 / IC50 T. cruzi INC-5 epimastigotes; for IC50: Trypanosoma cruzi, 24 h, 24 h + 20 h MTT, 27 °C, confidence interval (Probit) in parentheses, triplicate; for IC50 / activity on T. cruzi (in words): epimastigotes; for activity on T. cruzi (in words): in vitro. Here is the method: Epimastigotes of T. cruzi INC-5 were harvested after 7 days of growth in culture. […] The microplate was incubated in the dark at 27 °C for 24 h. Epimastigotes with 0.5% DMSO served as the positive viability control and the reference drugs nifurtimox ([…], Bayer, Germany) and benznidazole (Rochagan, Roche, Brazil) served as the negative viability control. Each condition was assayed in triplicate. Upon completion of the incubation time, 10 μL of MTT solution at 5 mg/mL was added to each well, and incubation continued in the dark at 27 °C for 20 h. Then, 100 μL of a solution containing 10% SDS and 0.01 M HCl was added to stop the reaction. […] The plates were read on a spectrophotometer (Spectramax Plus, Molecular Devices) at an absorbance of 570 nm. The result found in each well with a given concentration of the respective compound was compared to the positive viability control and the metabolic inhibition was expressed as a percentage. The IC50 was determined using the Probit statistical tool. MTT is a yellow, water-soluble compound. In living cells, […] is captured and reduced to its insoluble form (formazan, which is purple) by mitochondrial succinate dehydrogenase. The quantity of living cells is proportional to the amount of formazan produced.

The next series relates to J774A.1 macrophages. Kind of series: Cytotoxic effect on macrophages, resazurin. The class given is cell-based, murine. The conditions noted are these: murine macrophage cell line. Here is the method:
as §1

Turning to `C[C@@H]1[C@H](O)[C@@H](C)/C=C/C=C/C=C/C=C/C=C/C=C/C=C/[C@H](O[C@@H]2O[C@H](C)[C@@H](O)[C@H](N)[C@@H]2O)C[C@@H]2O[C@](O)(C[C@@H](O)C[C@@H](O)[C@H](O)CC[C@@H](O)C[C@@H](O)CC(=O)O[C@H]1C)C[C@H](O)[C@H]2C(=O)O` [AmB, amphotericin, reference compound], in series [1], the CC50 worked out at 48.1 mg/L. Moreover, in series [2], the “SI (CC50/IC50) L. mexicana” value amounted to 253.26 and the IC50 was 0.19 mg/L.
Consider `O=C(Cn1ccnc1[N+](=O)[O-])NCc1ccccc1` [Bnz, benznidazole, reference compound], for which, in series [3], the “SI (CC50/IC50) T. cruzi” value is recorded as 8.31 and the IC50 came to 11 mg/L. In addition, the cytotoxic concentration (CC50) in series [1] came out at 91.6 mg/L.
Regarding `CC1CS(=O)(=O)CCN1/N=C/c1ccc([N+](=O)[O-])o1` (stereo not drawn) [Nfx, nifurtimox, reference compound], in series [3], the “SI (CC50/IC50) T. cruzi” value is listed as 23.10 and the IC50 was 2.5 mg/L. Further, the CC50 in series [1] was determined as 57.8 mg/L.
Regarding `COc1ccc(C2=NCCN2)cc1` [compound 22, 2-(4-Methoxyphenyl)-4,5-dihydro-1H-imidazole], in series [3], the IC50 is greater than 50 mg/L and the “activity on T. cruzi (in words)” value is “inactive”. For the same compound, the “cytotoxic effect on macrophages (in words)” value with J774A.1 macrophages is “least cytotoxic effect”. In series [1], the CC50 is greater than 100 mg/L. In addition, in series [2], the “SI (CC50/IC50) L. mexicana” value is on record as greater than 6.23 and the IC50 was determined as 16 mg/L.
Compound `CCOc1ccc(C2=NCCN2)cc1` [compound 23, 2-(4-Ethoxyphenyl)-4,5-dihydro-1H-imidazole] had a melting point of 180 to 182 °C. Also, in series [3], the half-inhibitory concentration (IC50) was greater than 50 mg/L and the “activity on T. cruzi (in words)” value was “inactive”. Besides, the “cytotoxic effect on macrophages (in words)” value in the series with J774A.1 macrophages is “least cytotoxic effect”. Besides, the CC50 in series [1] was greater than 100 mg/L. Besides, in series [2], the “SI (CC50/IC50) L. mexicana” value is reported as greater than 13.12 and the IC50 turned out to be 7.62 mg/L.
In the case of `CCCOc1ccc(C2=NCCN2)cc1` [compound 24, 2-(4-Propyloxyphenyl)-4,5-dihydro-1H-imidazole], the melting point was 121 to 122 °C.
On to `CC(C)Oc1ccc(C2=NCCN2)cc1` [compound 25, 2-(4-iso-propyloxyphenyl)-4,5-dihydro-1H-imidazole], for which the melting point lay within 151 to 153 °C.
With `CCCCOc1ccc(C2=NCCN2)cc1` [compound 26, 2-(4-Butyloxyphenyl)-4,5-dihydro-1H-imidazole], the melting point was in the range of 122 to 123 °C. The IC50 in series [3] was determined as 48.7 mg/L. The CC50 in series [1] was greater than 100 mg/L. Also, in series [2], the “SI (CC50/IC50) L. mexicana” value was greater than 37.98 and the half-maximal inhibitory concentration (IC50) was 2.63 mg/L.
As for `CCCCCOc1ccc(C2=NCCN2)cc1` [compound 27, 8-Penthyloxyphenil-2-imidazoline], the melting point was 129 to 131 °C. In addition, in series [3], the “SI (CC50/IC50) T. cruzi” value worked out at 1.90 and the IC50 was found to be 37.5 mg/L. In series [1], the CC50 was found to be 71.3 mg/L. Besides, in series [2], the “SI (CC50/IC50) L. mexicana” value stood at 88.28 and the half-inhibitory concentration (IC50) is less than 1 mg/L.
The compound `CCCCCCOc1ccc(C2=NCCN2)cc1` [compound 28, 8-Hexyloxypheny-2-imidazoline] gave a melting point of 133 to 135 °C. Also, in series [3], the “SI (CC50/IC50) T. cruzi” value is 1.16 and the IC50 was 25.1 mg/L. Further, in series [1], the CC50 stood at 29.2 mg/L. The “SI (CC50/IC50) L. mexicana” value in series [2] came to 166.31.
In turn, `CCCCCCCOc1ccc(C2=NCCN2)cc1` [compound 29, 8-Hepthyloxyphenyl-2-imidazoline] came in with a melting point of 100 to 102 °C. The CC50 in series [1] was 21.5 mg/L. The “SI (CC50/IC50) L. mexicana” value in series [2] was found to be 106.21.
`CCCCCCCCOc1ccc(C2=NCCN2)cc1` [compound 30] came in with a melting point of 102 to 104 °C. In series [3], the IC50 is less than 1 mg/L and the “activity on T. cruzi (in words)” value was “active”. In series [1], the CC50 was determined as 9.72 mg/L. Besides, in series [2], the “SI (CC50/IC50) L. mexicana” value is 48.11 and the “activity on L. mexicana (in words)” value was “active”.
`CCCCCCCCCOc1ccc(C2=NCCN2)cc1` [compound 31] displayed a melting point of 103 to 105 °C. Further, in series [3], the “SI (CC50/IC50) T. cruzi” value was determined as 2.40 and the IC50 is 21 mg/L. Further, in series [1], the CC50 was determined as 50.6 mg/L. For the same compound, in series [2], the “SI (CC50/IC50) L. mexicana” value turned out to be 92.56 and the IC50 is less than 1 mg/L.
In turn, `CCCCCCOc1ccc(-c2ncc[nH]2)cc1` [compound 33, 8-Hexyloxyphenyl-2-imidazole] showed a melting point of 133 to 135 °C. For the same compound, in series [3], the IC50 is less than 10 mg/L and the “activity on T. cruzi (in words)” value is listed as “active”. In series [1], the cytotoxic concentration (CC50) was 85.7 mg/L. For the same compound, in series [2], the “SI (CC50/IC50) L. mexicana” value is reported as 25.21, the IC50 worked out at 3.4 mg/L and the “activity on L. mexicana (in words)” value was “active”.
Turning to `CCCCCCCCOc1ccc(-c2ncc[nH]2)cc1` [compound 35, 8-Octyloxyphenyl-2-imidazole], the melting point fell in the range of 117 to 119 °C. In addition, in series [3], the “activity on T. cruzi (in words)” value is reported as “active”. Further, in series [1], the CC50 was 40.2 mg/L. For the same compound, in series [2], the “SI (CC50/IC50) L. mexicana” value is on record as 14.92, the IC50 turned out to be 2.69 mg/L and the “activity on L. mexicana (in words)” value is given as “active”.
Consider `CCCCCCCCCOc1ccc(-c2ncc[nH]2)cc1` [compound 36, 8-Nonyloxyphenyl-2-imidazole], for which, in series [3], the IC50 was less than 1 mg/L and the “activity on T. cruzi (in words)” value is “active”. The 50% cytotoxic concentration (CC50) in series [1] was determined as 31.3 mg/L. Besides, in series [2], the “SI (CC50/IC50) L. mexicana” value turned out to be 28.53, the IC50 amounted to 1.09 mg/L and the “activity on L. mexicana (in words)” value is “active”.
Consider `CCCCCCOc1ccc([C@@H](O)[C@@H](O)c2ccc(OCCCCCC)cc2)cc1` [compound 37, (1R,2S)-1,2-bis(4-hexyloxyphenyl)ethane-1,2-diol], for which the melting point was 122 to 123 °C. In series [3], the IC50 was greater than 50 mg/L and the “activity on T. cruzi (in words)” value was “inactivity”. In series [2], the IC50 was greater than 50 mg/L and the “activity on L. mexicana (in words)” value is “inactivity”.
Regarding `O=c1[nH]c2ccccc2nc1CBr` [compound 38, 3-(Bromomethyl)quinoxalin-2(1H)-one], the melting point is 224 to 226 °C. Besides, in series [3], the IC50 is greater than 50 mg/L and the “activity on T. cruzi (in words)” value is reported as “no effect was detected”. For the same compound, in series [2], the IC50 is greater than 50 mg/L and the “activity on L. mexicana (in words)” value is reported as “no effect was detected”.

One may read the CC50 as the concentration at which the toxic effect on the cells reaches its halfway point. As a reminder, the IC50 is the concentration that gives 50% inhibition. For orientation: melting point means the temperature, or range, at which the solid turns liquid.

For the origin of these results see publication PMC11012064, “Synthesis of Antiprotozoal 2-(4-Alkyloxyphenyl)-Imidazolines and Imidazoles and Their Evaluation on Leishmania mexicana and Trypanosoma cruzi” (International Journal of Molecular Sciences, 2024).
